This is an account of results in patent US11964955B2, “Mixtures of cannabinoid compounds, and production and use thereof” (priority 2015, dated 2024).

SMILES strings stand for the structures. Entries after “also recorded” stand apart in the source; their conditions may differ. Read-outs that look alike come from different tables or passages of the source.

For experiment [1], the target named is T1, CB2 receptor (Homo sapiens, UniProt P34972). In words: Competition binding study with [3H]-CP55940 on membranes of CB2-transfected human cells. Set-up: purchased RBXCB2M400UA. The following applies: for Ki: mean +/- SEM, [3H]-CP55940 0.15 nM, triplicates; for Selectivity for CB2 compared to CB1 (fold): ratio of Ki CB1 to Ki CB2; for CB2 (% Binding): screening with a single high dose, displacement of [3H]-CP55940 0.15 nM.
T1 sequence (P34972 whole entry): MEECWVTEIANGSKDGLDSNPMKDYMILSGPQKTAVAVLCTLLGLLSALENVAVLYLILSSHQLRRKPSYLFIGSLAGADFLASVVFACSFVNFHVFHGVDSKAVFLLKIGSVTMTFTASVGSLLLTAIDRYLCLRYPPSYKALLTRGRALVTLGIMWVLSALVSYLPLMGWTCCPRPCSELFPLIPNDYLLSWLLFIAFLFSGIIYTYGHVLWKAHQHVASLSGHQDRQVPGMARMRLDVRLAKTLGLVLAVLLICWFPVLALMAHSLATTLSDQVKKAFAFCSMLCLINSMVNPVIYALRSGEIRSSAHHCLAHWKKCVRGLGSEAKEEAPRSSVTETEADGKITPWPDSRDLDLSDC

Experiment [2] deals with T2, CB1 receptor (Homo sapiens, UniProt P21554). As to the kind of experiment: Signal transmission (CRE-luciferase) in CHO-CB1-CREluc cells, agonism and antagonism versus WIN. Particulars: for Functional effect at the CB1 receptor (in words): text and FIGS. 4 to 6.
T2 sequence (P21554 whole entry): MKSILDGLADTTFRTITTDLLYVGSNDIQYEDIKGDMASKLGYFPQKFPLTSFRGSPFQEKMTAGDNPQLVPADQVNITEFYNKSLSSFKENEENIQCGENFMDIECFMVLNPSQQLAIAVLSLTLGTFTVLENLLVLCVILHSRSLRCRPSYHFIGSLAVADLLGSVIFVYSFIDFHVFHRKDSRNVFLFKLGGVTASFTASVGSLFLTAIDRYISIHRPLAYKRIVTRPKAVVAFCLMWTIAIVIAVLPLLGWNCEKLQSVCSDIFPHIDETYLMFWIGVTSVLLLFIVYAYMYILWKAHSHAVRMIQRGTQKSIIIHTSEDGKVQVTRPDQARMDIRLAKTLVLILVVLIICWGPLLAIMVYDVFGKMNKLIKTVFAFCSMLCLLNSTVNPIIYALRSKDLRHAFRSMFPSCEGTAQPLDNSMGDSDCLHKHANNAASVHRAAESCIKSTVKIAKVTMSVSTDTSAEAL
In experiment [3] the target is T1, CB2 receptor. In words: Signal transmission (CRE-luciferase, forskolin) in CHO-CB2-CREluc cells, agonism. Particulars: for Functional effect at the CB2 receptor (in words): FIGS. 2 and 3.
In experiment [4] the target is T2, CB1 receptor. As to the kind of experiment: biochemical. The class given is binding. Set-up: purchased RBHCB1M400UA.
The target in experiment [5] is CB2 receptor. The following applies: Pertwee et al. Pharmacol. Rev. 2010; read-out: CB2 affinity (dissociation constant) listed in the literature; cited from earlier work.

On to `C=C(C)[C@@H]1CCC(C)C=C1c1c(O)cc(CCC)c(C(=O)OC2CCCCC2)c1O` (stereo partly shown) [CHCBDV, cyclohexylcannabidivarinolat], for which, at CB2 receptor [1], the “Binding to CB2 receptor (in words)” value is “strong binding to the receptors within the lower nanomolar range”, the Ki amounted to 4.62 ± 0.46 nM, the “Selectivity for CB2 compared to CB1 (fold)” value (shortened to “Selectivity for CB2 … (fold)”) amounted to 2.9 fold and the “CB2 (% Binding)” value is reported as 99.9% (n = 3). Further, on CB1 receptor [2], the “Agonism and antagonism at CB1” value was “++”; the “Functional effect at the CB1 receptor (in words)” value is “CB1 and CB2 agonist; also recorded: Dose-dependent agonism”. Moreover, at CB2 receptor [3], the “Agonism and antagonism at CB2” value is “++”; the “Functional effect at the CB2 receptor (in words)” value is “CB1 and CB2 agonist; also recorded: Dose-dependent agonism”. Besides, on CB1 receptor [4], the “Binding to CB1 receptor (in words)” value is “strong binding to the receptors within the lower nanomolar range”, the “CB1 (% Binding)” value is 82.4% (n = 4) and the Ki worked out at 13.2 ± 0.85 nM.
Take `C=C(C)[C@@H]1CCC(C)=C[C@H]1c1c(O)cc(CCCCC)cc1O` [CBD, 2-[1R-3-methyl-6-(1-methylethenyl)-2-cyclohexen-1-yl]-5-pentyl-1,3-benzoldiol]: the Ki at CB2 receptor [5] is […].
As for `C=C(C)[C@@H]1CCC(C)=C[C@H]1c1c(O)cc(CCC)c(C(=O)OCCO)c1O` [HECBDV, 2-hydroxyethylcannabidivarinolat], at CB2 receptor [1], the Ki came to 168 ± 39.4 nM, the “Selectivity for CB2 … (fold)” value is 33.6 fold and the “CB2 (% Binding)” value is 95.0% (n = 3). In addition, on CB1 receptor [2], the “Agonism and antagonism at CB1” value is recorded as “−”; the “Functional effect at the CB1 receptor (in words)” value is “inhibited; also recorded: Dose-dependent antagonism”. Further, on CB2 receptor [3], the “Agonism and antagonism at CB2” value is reported as “++”; the “Functional effect at the CB2 receptor (in words)” value is reported as “selective agonist; also recorded: Dose-dependent agonism”. Also, the “CB1 (% Binding)” value on CB1 receptor [4] is listed as 43.3% (n = 5). Also, the Ki on CB1 receptor [4] (read-out: Ki for CB1) worked out at 5650 ± 3900 nM.
For `C=C(C)[C@@H]1CCC(C)C=C1c1c(O)cc(CCC)c(C(=O)OCCCCCC)c1O` (stereo partly shown) [HCBDV, hexylcannabidivarinolat], at CB2 receptor [1], the “Binding to CB2 receptor (in words)” value is listed as “strong binding to the receptors within the lower nanomolar range”, the Ki was 9.91 ± 2.46 nM, the “Selectivity for CB2 … (fold)” value is 0.8 fold and the “CB2 (% Binding)” value is 98.5% (n = 3). Besides, on CB1 receptor [2], the “Agonism and antagonism at CB1” value is recorded as “++”; the “Functional effect at the CB1 receptor (in words)” value was “selective activation of CB1 receptors; also recorded: Dose-dependent agonism”. The “Agonism and antagonism at CB2” value on CB2 receptor [3] worked out at 0. On CB1 receptor [4], the “Binding to CB1 receptor (in words)” value is recorded as “strong binding to the receptors within the lower nanomolar range”, the “CB1 (% Binding)” value is given as 91.1% (n = 4) and the Ki came to 8.28 ± 0.69 nM.
